From patent US10155766B2, “Pyrazolopyrimidine antibacterial agents” (priority 2016, dated 2018)
Entries after “also recorded” stand apart in the source; their conditions may differ.

Key:
[1] = tested on: Burkholderia thailandensis (E 264); assay: microbe, parasite or virus in culture; assay type: cell-based; details: for zone of inhibition at 100 µM / zone of inhibition at 500 µM / zone of inhibition at 1000 µM: Burkholderia thailandensis, read-out: Zone of inhibition (diameter, in millimeter) B. thailandensis; for zone of inhibition at 100 µM: Conc. 0.1 mM; for zone of inhibition at 500 µM: Conc. 0.5 mM; for zone of inhibition at 1000 µM: Conc. 1.0 mM
[2] = tested on: Pseudomonas aeruginosa (ATCC 27853); assay: microbe, parasite or virus in culture; assay type: cell-based; details: for zone of inhibition at 100 µM / zone of inhibition at 500 µM / zone of inhibition at 1000 µM: Pseudomonas aeruginosa, ATCC27853, read-out: Zone of inhibition (diameter, in millimeter) P. aeruginosa; for zone of inhibition at 100 µM: Conc. 0.1 mM; for zone of inhibition at 500 µM: Conc. 0.5 mM; for zone of inhibition at 1000 µM: Conc. 1.0 mM
BtIspD = biological target: T1, BtIspD (Burkholderia thailandensis, UniProt Q2SWT6); assay type: binding
T1 construct: 6xHis (AVA0421 vector, 3C-cleavable) (N, cleaved yes); made in house; host or cells: E. coli BL21(DE3)R3 Rosetta Oxford
T1 sequence (Q2SWT6 1-236): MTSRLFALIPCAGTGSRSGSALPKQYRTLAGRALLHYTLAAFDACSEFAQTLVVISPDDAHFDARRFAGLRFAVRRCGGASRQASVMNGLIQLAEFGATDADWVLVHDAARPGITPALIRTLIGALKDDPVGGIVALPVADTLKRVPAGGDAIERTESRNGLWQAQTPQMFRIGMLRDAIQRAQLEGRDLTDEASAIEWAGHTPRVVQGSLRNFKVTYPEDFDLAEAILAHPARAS

BtIspE = assay type: binding, Burkholderia thailandensis

## Cn1ncc2c(NCc3ccc(F)cc3)ncnc21 [Compound 16]
[1]
  zone of inhibition at 100 µM: 0 mm
  zone of inhibition at 500 µM: 9 mm
  zone of inhibition at 1000 µM: 18 mm
[2]
  zone of inhibition at 100 µM: 0 mm
  zone of inhibition at 500 µM: 12 mm
  zone of inhibition at 1000 µM: 18 mm

## CC(C)(C)n1ncc2c(NCc3ccc(Cl)c(Cl)c3)ncnc21 [Compound 19]
[1]
  zone of inhibition at 100 µM: 0 mm
  zone of inhibition at 500 µM: 16 mm
  zone of inhibition at 1000 µM: 20 mm
[2]
  zone of inhibition at 100 µM: 0 mm
  zone of inhibition at 500 µM: 12 mm
  zone of inhibition at 1000 µM: 16 mm
other
  melting point: 120 to 123 °C

## Cn1ncc2c(NCCc3cccc(F)c3)ncnc21 [Compound 22]
[1]
  zone of inhibition at 100 µM: 0 mm
  zone of inhibition at 500 µM: 11 mm
  zone of inhibition at 1000 µM: 14 mm
[2]
  zone of inhibition at 100 µM: 0 mm
  zone of inhibition at 500 µM: 0 mm
  zone of inhibition at 1000 µM: 8 mm
other
  melting point: 109 to 110 °C

## CC(C)Nc1ncnc2c1cnn2C [Compound 6]
[1]
  zone of inhibition at 100 µM: 0 mm
  zone of inhibition at 500 µM: 13 mm
  zone of inhibition at 1000 µM: 21 mm
[2]
  zone of inhibition at 100 µM: 0 mm
  zone of inhibition at 500 µM: 0 mm
  zone of inhibition at 1000 µM: 10 mm
other
  melting point: 101 to 103 °C

## Cn1ncc2c(NCCc3ccccc3F)ncnc21 [Compound 21]
[1]
  zone of inhibition at 100 µM: 0 mm
  zone of inhibition at 500 µM: 12 mm
  zone of inhibition at 1000 µM: 16 mm
[2]
  zone of inhibition at 100 µM: 0 mm
  zone of inhibition at 500 µM: 8 mm
  zone of inhibition at 1000 µM: 16 mm
other
  melting point: 139 to 140 °C

## C[C@H](Nc1ncnc2c1cnn2C)c1ccccc1 [Compound 10]
[1]
  zone of inhibition at 100 µM: 0 mm
  zone of inhibition at 500 µM: 11 mm
  zone of inhibition at 1000 µM: 19 mm
[2]
  zone of inhibition at 100 µM: 0 mm
  zone of inhibition at 500 µM: 8 mm
  zone of inhibition at 1000 µM: 14 mm
other
  melting point: 201 to 203 °C

## Cn1ncc2c(NCc3ccccc3)ncnc21 [Compound 9]
[1]
  zone of inhibition at 100 µM: 0 mm
  zone of inhibition at 500 µM: 0 mm
  zone of inhibition at 1000 µM: 12 mm
[2]
  zone of inhibition at 100 µM: 0 mm
  zone of inhibition at 500 µM: 0 mm
  zone of inhibition at 1000 µM: 0 mm

## Cn1ncc2c(NCCc3ccc(F)cc3)ncnc21 [Compound 23]
[1]
  zone of inhibition at 100 µM: 0 mm
  zone of inhibition at 500 µM: 12 mm
  zone of inhibition at 1000 µM: 22 mm
[2]
  zone of inhibition at 100 µM: 0 mm
  zone of inhibition at 500 µM: 9 mm
  zone of inhibition at 1000 µM: 17 mm
other
  melting point: 106 to 107 °C

## Cn1ncc2c(NCCc3ccc(Cl)cc3Cl)ncnc21 [Compound 29]
BtIspD
  STD-NMR binding to BtIspD (in words): strongest binders
BtIspE
  STD-NMR binding to BtIspE (in words): high % STD values; also recorded: highest % STD value; also recorded: significant interactions with the active site of BtIspE
[1]
  growth inhibition of B. thailandensis (in words): most potent compound tested
  zone of inhibition at 100 µM: 6 mm
  zone of inhibition at 500 µM: 10 mm
  zone of inhibition at 1000 µM: 18 mm
[2]
  concentration at which inhibitory activity against kanamycin resistant P. aeruginosa is shown: 0.5 mM
  growth inhibition of P. aeruginosa (in words): measurable potency
  zone of inhibition at 100 µM: 0 mm
  zone of inhibition at 500 µM: 12 mm
  zone of inhibition at 1000 µM: 18 mm
other
  melting point: 145 to 147 °C

## Cn1ncc2c(NCc3cccc(F)c3)ncnc21 [Compound 14]
BtIspE
  STD-NMR binding to BtIspE (in words): high % STD values
[1]
  zone of inhibition at 100 µM: 0 mm
  zone of inhibition at 500 µM: 6 mm
  zone of inhibition at 1000 µM: 11 mm
[2]
  zone of inhibition at 100 µM: 0 mm
  zone of inhibition at 500 µM: 10 mm
  zone of inhibition at 1000 µM: 15 mm
other
  melting point: 176 to 177 °C

## Cn1ncc2c(NCCc3c(F)cccc3Cl)ncnc21 [Compound 26]
BtIspD
  STD-NMR binding to BtIspD (in words): strongest binders
  change of STD binding to BtIspD upon addition of CDP: large decrease
[1]
  zone of inhibition at 100 µM: 0 mm
  zone of inhibition at 500 µM: 13 mm
  zone of inhibition at 1000 µM: 21 mm
[2]
  zone of inhibition at 100 µM: 0 mm
  zone of inhibition at 500 µM: 11 mm
  zone of inhibition at 1000 µM: 19 mm
other
  melting point: 195 to 196 °C

## CC(C)(C)n1ncc2c(NCc3ccccc3)ncnc21 [Compound 11]
[1]
  zone of inhibition at 100 µM: 0 mm
  zone of inhibition at 500 µM: 12 mm
  zone of inhibition at 1000 µM: 18 mm
[2]
  zone of inhibition at 100 µM: 0 mm
  zone of inhibition at 500 µM: 0 mm
  zone of inhibition at 1000 µM: 0 mm
other
  melting point: 158 to 160 °C

## Cn1ncc2c(NCc3ccco3)ncnc21 [Compound 7]
[1]
  zone of inhibition at 100 µM: 0 mm
  zone of inhibition at 500 µM: 0 mm
  zone of inhibition at 1000 µM: 20 mm
[2]
  zone of inhibition at 100 µM: 0 mm
  zone of inhibition at 500 µM: 0 mm
  zone of inhibition at 1000 µM: 0 mm
other
  melting point: 141 to 143 °C

## CC(C)(C)n1ncc2c(NCc3cccc([N+](=O)[O-])c3)ncnc21 [Compound 15]
[1]
  zone of inhibition at 100 µM: 0 mm
  zone of inhibition at 500 µM: 12 mm
  zone of inhibition at 1000 µM: 16 mm
[2]
  zone of inhibition at 100 µM: 0 mm
  zone of inhibition at 500 µM: 13 mm
  zone of inhibition at 1000 µM: 17 mm
other
  melting point: 135 to 137 °C

## Cn1ncc2c(NCCc3ccccc3)ncnc21 [Compound 20]
[1]
  zone of inhibition at 100 µM: 0 mm
  zone of inhibition at 500 µM: 9 mm
  zone of inhibition at 1000 µM: 20 mm
[2]
  zone of inhibition at 100 µM: 0 mm
  zone of inhibition at 500 µM: 0 mm
  zone of inhibition at 1000 µM: 0 mm
other
  melting point: 101 to 103 °C

## Cn1ncc2c(NCCc3ccc(Cl)cc3)ncnc21 [Compound 24]
[1]
  zone of inhibition at 100 µM: 0 mm
  zone of inhibition at 500 µM: 10 mm
  zone of inhibition at 1000 µM: 13 mm
[2]
  zone of inhibition at 100 µM: 0 mm
  zone of inhibition at 500 µM: 0 mm
  zone of inhibition at 1000 µM: 10 mm

## CC(C)(C)n1ncc2c(NCCc3c(Cl)cccc3Cl)ncnc21 [Compound 28]
[1]
  zone of inhibition at 100 µM: 0 mm
  zone of inhibition at 500 µM: 11 mm
  zone of inhibition at 1000 µM: 18 mm
[2]
  zone of inhibition at 100 µM: 0 mm
  zone of inhibition at 500 µM: 0 mm
  zone of inhibition at 1000 µM: 0 mm
other
  melting point: 154 to 156 °C

## Cn1ncc2c(NCCc3c[nH]c4ccccc34)ncnc21
other
  melting point: 183 to 185 °C

## Cn1ncc2c(NCCc3ccc(O)cc3)ncnc21 [Compound 25]
BtIspD
  STD-NMR binding to BtIspD (in words): strongest binders
BtIspE
  STD-NMR binding to BtIspE (in words): weaker binder
  change of % STD binding signal to BtIspE after subsequent addition of CDP: loses all binding signal entirely
  change of % STD binding signal to BtIspE upon addition of ADP: no change
[1]
  growth inhibition of B. thailandensis (in words): Activity was not detected; also recorded: did not show zone of inhibition activity
  zone of inhibition at 100 µM: 0 mm
  zone of inhibition at 500 µM: 0 mm
  zone of inhibition at 1000 µM: 0 mm
[2]
  growth inhibition of P. aeruginosa (in words): Activity was not detected; also recorded: did not show zone of inhibition activity
  zone of inhibition at 100 µM: 0 mm
  zone of inhibition at 500 µM: 0 mm
  zone of inhibition at 1000 µM: 0 mm
other
  melting point: 182 to 184 °C

## NC[C@H]1O[C@H](O[C@H]2[C@H](O)[C@@H](O[C@H]3O[C@H](CO)[C@@H](O)[C@H](N)[C@H]3O)[C@H](N)C[C@@H]2N)[C@H](O)[C@@H](O)[C@@H]1O [Kanamycin, reference compound]
[1]
  concentration at which inhibitory activity against B. thailandensis is shown: 48.5 µg/mL
  zone of inhibition at 100 µM: 6 mm
  zone of inhibition at 500 µM: 22 mm
  zone of inhibition at 1000 µM: 30 mm
[2]
  zone of inhibition at 100 µM: 0 mm
  zone of inhibition at 500 µM: 0 mm
  zone of inhibition at 1000 µM: 0 mm

## CC(C)(C)n1ncc2c(NCc3ccco3)ncnc21 [Compound 8]
[1]
  zone of inhibition at 100 µM: 0 mm
  zone of inhibition at 500 µM: 12 mm
  zone of inhibition at 1000 µM: 14 mm
[2]
  zone of inhibition at 100 µM: 0 mm
  zone of inhibition at 500 µM: 6 mm
  zone of inhibition at 1000 µM: 12 mm
other
  melting point: 101 to 103 °C

## CCOC(=O)CNc1ncnc2c1cnn2C [Compound 5]
[1]
  zone of inhibition at 100 µM: 0 mm
  zone of inhibition at 500 µM: 8 mm
  zone of inhibition at 1000 µM: 12 mm
[2]
  zone of inhibition at 100 µM: 0 mm
  zone of inhibition at 500 µM: 0 mm
  zone of inhibition at 1000 µM: 13 mm
other
  melting point: 141 to 142 °C

## Cn1ncc2c(NCc3ccccc3F)ncnc21 [Compound 13]
[1]
  zone of inhibition at 100 µM: 0 mm
  zone of inhibition at 500 µM: 8 mm
  zone of inhibition at 1000 µM: 13 mm
[2]
  zone of inhibition at 100 µM: 0 mm
  zone of inhibition at 500 µM: 12 mm
  zone of inhibition at 1000 µM: 18 mm
other
  melting point: 184 to 185 °C

## CC(C)(C)n1ncc2c(NCCc3c(F)cccc3Cl)ncnc21 [Compound 27]
BtIspD
  STD-NMR binding to BtIspD (in words): strongest binders
  change of STD binding to BtIspD upon addition of CDP: large decrease
[1]
  zone of inhibition at 100 µM: 0 mm
  zone of inhibition at 500 µM: 12 mm
  zone of inhibition at 1000 µM: 16 mm
[2]
  zone of inhibition at 100 µM: 0 mm
  zone of inhibition at 500 µM: 0 mm
  zone of inhibition at 1000 µM: 0 mm
other
  melting point: 140 to 142 °C

## CC(C)(C)n1ncc2c(NCCO)ncnc21 [Compound 4]
[1]
  zone of inhibition at 100 µM: 0 mm
  zone of inhibition at 500 µM: 8 mm
  zone of inhibition at 1000 µM: 12 mm
[2]
  zone of inhibition at 100 µM: 0 mm
  zone of inhibition at 500 µM: 12 mm
  zone of inhibition at 1000 µM: 20 mm
other
  melting point: 75 to 77 °C
